Source: PubChem BioAssay (NCI)
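In this assay, cells in 96-well plates receive the compound at five concentrations for 48 hours. Endpoints are linearly interpolated between the surrounding concentrations. At the TGI there is no net growth.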

Columns and labels:
Assay in all cases: growth of human tumour cells (NCI), 48 h
786-0 renal = system: 786-0 renal
A498 renal = system: A498 renal
A549 NSCLC = system: A549 NSCLC
ACHN renal = system: ACHN renal
BT-549 breast = system: BT-549 breast
CAKI-1 renal = system: CAKI-1 renal
CCRF-CEM leukemia = system: CCRF-CEM leukemia
COLO 205 colon = system: COLO 205 colon
DU-145 prostate = system: DU-145 prostate
EKVX NSCLC = system: EKVX NSCLC
HCC-2998 colon = system: HCC-2998 colon
HCT-116 colon = system: HCT-116 colon
HCT-15 colon = system: HCT-15 colon
HL-60(TB) leukemia = system: HL-60(TB) leukemia
HOP-62 NSCLC = system: HOP-62 NSCLC
HOP-92 NSCLC = system: HOP-92 NSCLC
HS 578T breast = system: HS 578T breast
HT29 colon = system: HT29 colon
IGROV1 ovarian = system: IGROV1 ovarian
K-562 leukemia = system: K-562 leukemia
KM12 colon = system: KM12 colon
LOX IMVI melanoma = system: LOX IMVI melanoma
M14 melanoma = system: M14 melanoma
MALME-3M melanoma = system: MALME-3M melanoma
MCF7 breast = system: MCF7 breast
MDA-MB-231 breast = system: MDA-MB-231 breast
MDA-MB-435 = system: MDA-MB-435
MDA-N = system: MDA-N
MOLT-4 leukemia = system: MOLT-4 leukemia
NCI-H226 lung = system: NCI-H226 lung
NCI-H23 lung = system: NCI-H23 lung
NCI-H460 lung = system: NCI-H460 lung
NCI-H522 lung = system: NCI-H522 lung
NCI/ADR-RES ovarian = system: NCI/ADR-RES ovarian
OVCAR-3 ovarian = system: OVCAR-3 ovarian
OVCAR-4 ovarian = system: OVCAR-4 ovarian
OVCAR-5 ovarian = system: OVCAR-5 ovarian
OVCAR-8 ovarian = system: OVCAR-8 ovarian
PC-3 prostate = system: PC-3 prostate
RPMI-8226 leukemia = system: RPMI-8226 leukemia
RXF 393 renal = system: RXF 393 renal
SF-268 CNS = system: SF-268 CNS
SF-295 CNS = system: SF-295 CNS
SF-539 CNS = system: SF-539 CNS
SK-MEL-2 melanoma = system: SK-MEL-2 melanoma
SK-MEL-28 melanoma = system: SK-MEL-28 melanoma
SK-MEL-5 melanoma = system: SK-MEL-5 melanoma
SK-OV-3 ovarian = system: SK-OV-3 ovarian
SN12C renal = system: SN12C renal
SNB-19 CNS = system: SNB-19 CNS
SNB-75 CNS = system: SNB-75 CNS
SW-620 colon = system: SW-620 colon
T-47D breast = system: T-47D breast
TK-10 renal = system: TK-10 renal
U251 CNS = system: U251 CNS
UACC-257 melanoma = system: UACC-257 melanoma
UACC-62 melanoma = system: UACC-62 melanoma
UO-31 renal = system: UO-31 renal

SMILES: CN(C)c1ccc(/C=C(\NC(=O)c2ccccc2)c2nn(C)c(=O)o2)cc1
- TGI (786-0 renal): > 100 µM
- TGI (A498 renal): > 100 µM
- TGI (A549 NSCLC): > 100 µM
- TGI (ACHN renal): > 100 µM
- TGI (BT-549 breast): > 100 µM
- TGI (CAKI-1 renal): > 100 µM
- TGI (CCRF-CEM leukemia): > 100 µM
- TGI (COLO 205 colon): > 100 µM
- TGI (DU-145 prostate): > 100 µM
- TGI (EKVX NSCLC): > 100 µM
- TGI (HCC-2998 colon): > 100 µM
- TGI (HCT-116 colon): > 100 µM
- TGI (HCT-15 colon): > 100 µM
- TGI (HL-60(TB) leukemia): > 100 µM
- TGI (HOP-62 NSCLC): 38.1 µM
- TGI (HOP-92 NSCLC): > 100 µM
- TGI (HS 578T breast): > 100 µM
- TGI (HT29 colon): > 100 µM
- TGI (IGROV1 ovarian): > 100 µM
- TGI (K-562 leukemia): > 100 µM
- TGI (KM12 colon): > 100 µM
- TGI (LOX IMVI melanoma): > 100 µM
- TGI (M14 melanoma): > 100 µM
- TGI (MALME-3M melanoma): > 100 µM
- TGI (MCF7 breast): > 100 µM
- TGI (MDA-MB-231 breast): > 100 µM
- TGI (MDA-MB-435): > 100 µM
- TGI (MDA-N): > 100 µM
- TGI (MOLT-4 leukemia): > 100 µM
- TGI (NCI-H226 lung): 93.8 µM
- TGI (NCI-H23 lung): > 100 µM
- TGI (NCI-H460 lung): > 100 µM
- TGI (NCI-H522 lung): 47 µM
- TGI (NCI/ADR-RES ovarian): 65.6 µM
- TGI (OVCAR-3 ovarian): > 100 µM
- TGI (OVCAR-4 ovarian): 97.7 µM
- TGI (OVCAR-5 ovarian): > 100 µM
- TGI (OVCAR-8 ovarian): 82.9 µM
- TGI (PC-3 prostate): > 100 µM
- TGI (RPMI-8226 leukemia): > 100 µM
- TGI (RXF 393 renal): > 100 µM
- TGI (SF-268 CNS): > 100 µM
- TGI (SF-295 CNS): > 100 µM
- TGI (SF-539 CNS): > 100 µM
- TGI (SK-MEL-2 melanoma): > 100 µM
- TGI (SK-MEL-28 melanoma): > 100 µM
- TGI (SK-MEL-5 melanoma): 93.5 µM
- TGI (SK-OV-3 ovarian): > 100 µM
- TGI (SN12C renal): > 100 µM
- TGI (SNB-19 CNS): 80 µM
- TGI (SNB-75 CNS): 46.8 µM
- TGI (SW-620 colon): > 100 µM
- TGI (T-47D breast): > 100 µM
- TGI (TK-10 renal): > 100 µM
- TGI (U251 CNS): 54.3 µM
- TGI (UACC-257 melanoma): > 100 µM
- TGI (UACC-62 melanoma): > 100 µM
- TGI (UO-31 renal): > 100 µM

SMILES: O=C(O)c1cccc2cccc(-c3cccc4cccc(C(=O)O)c34)c12
- TGI (786-0 renal): > 100 µM
- TGI (A498 renal): > 100 µM
- TGI (A549 NSCLC): > 100 µM
- TGI (ACHN renal): > 100 µM
- TGI (BT-549 breast): > 100 µM
- TGI (CAKI-1 renal): > 100 µM
- TGI (CCRF-CEM leukemia): > 100 µM
- TGI (COLO 205 colon): > 100 µM
- TGI (DU-145 prostate): > 100 µM
- TGI (EKVX NSCLC): > 100 µM
- TGI (HCC-2998 colon): > 100 µM
- TGI (HCT-116 colon): > 100 µM
- TGI (HCT-15 colon): > 100 µM
- TGI (HL-60(TB) leukemia): > 100 µM
- TGI (HOP-62 NSCLC): > 100 µM
- TGI (HS 578T breast): > 100 µM
- TGI (HT29 colon): > 100 µM
- TGI (IGROV1 ovarian): > 100 µM
- TGI (K-562 leukemia): > 100 µM
- TGI (KM12 colon): > 100 µM
- TGI (LOX IMVI melanoma): > 100 µM
- TGI (M14 melanoma): > 100 µM
- TGI (MALME-3M melanoma): > 100 µM
- TGI (MCF7 breast): > 100 µM
- TGI (MDA-MB-231 breast): > 100 µM
- TGI (MDA-MB-435): > 100 µM
- TGI (MDA-N): > 100 µM
- TGI (NCI-H226 lung): > 100 µM
- TGI (NCI-H23 lung): > 100 µM
- TGI (NCI-H460 lung): > 100 µM
- TGI (NCI-H522 lung): > 100 µM
- TGI (NCI/ADR-RES ovarian): > 100 µM
- TGI (OVCAR-3 ovarian): > 100 µM
- TGI (OVCAR-4 ovarian): > 100 µM
- TGI (OVCAR-5 ovarian): > 100 µM
- TGI (OVCAR-8 ovarian): > 100 µM
- TGI (PC-3 prostate): > 100 µM
- TGI (RXF 393 renal): > 100 µM
- TGI (SF-268 CNS): > 100 µM
- TGI (SF-295 CNS): > 100 µM
- TGI (SF-539 CNS): > 100 µM
- TGI (SK-MEL-2 melanoma): > 100 µM
- TGI (SK-MEL-28 melanoma): > 100 µM
- TGI (SK-MEL-5 melanoma): > 100 µM
- TGI (SK-OV-3 ovarian): > 100 µM
- TGI (SN12C renal): > 100 µM
- TGI (SNB-19 CNS): > 100 µM
- TGI (SNB-75 CNS): > 100 µM
- TGI (SW-620 colon): > 100 µM
- TGI (T-47D breast): > 100 µM
- TGI (TK-10 renal): > 100 µM
- TGI (U251 CNS): > 100 µM
- TGI (UACC-257 melanoma): > 100 µM
- TGI (UACC-62 melanoma): > 100 µM
- TGI (UO-31 renal): > 100 µM
